{"source": "patent US5108916A", "about": "“Process for stereoselectively hydrolyzing, transesterifying or esterifying with immobilized isozyme of lipase from Candida rugosa” (priority 1989, dated 1992)", "key": {"[1]": {"assay": "Conversion of ketoprofen esters in organic solvent/oleic acid media", "assay_type": "biochemical", "description": "To optimize the organic solvent used in the presence of oleic acid a variety of organic solvents were used, along with a variety of ketoprofen esters. In this experiment, 50 mg of ketoprofen esters were weighed into flasks, along with 1 ml of oleic acid and 9 ml of an organic solvent. The flasks were capped and incubated at 35° C., 250 rpm, for 10-26 hours before stopping the reaction by first adding 4 ml CHCl3 to solubilize the substrates and products, then filtering through a 0.2 um Gelman Nylaflo filter. Samples were then diluted in methanol and analyzed by HPLC as in Example 18. The experiment was also performed using 200 ul of oleic acid and 10ml buffer, which was acidified, extracted with CHCl3 and analyzed by HPLC as above.\nOne ml of oleic acid was added, as was 9 ml of buffer (100 mM (NH4)H2 PO4, pH 5.5) or organic solvent. Flasks were placed into a 35° C. incubator and shaken at 250 rpm for 13 hours. Reaction was stopped by adding 5 ml CHCl3 to solubilize the organic material and filtering the solutions using 0.2 um Gelman Nylaflo membranes to remove the enzyme. Samples were analyzed on an ODS-3 RAC column using CH3 OH:10 mM (NH4)H2PO4 (60:40) as eluant, flow rate 4 ml/min, and detection at 254 nm. %ee was determined by the resolution of diastereomeric amides on the above HPLC system, as per Example 18."}, "Lipase MY": {"tested_on": "Lipase MY", "assay": "Two phase Lipase MY hydrolysis of HPPA-Me in organic solvent/water mixtures", "assay_type": "biochemical, Candida rugosa", "description": "A. 75% organic solvent/25% aqueous buffer--Fifty milligrams of R,S-HPPA-Me was combined in 10 ml Scintillation vial with 7.5 ml of organic solvent, 2.5 ml of 50 mM phosphate buffer pH 6.0, and 5 mg Lipase MY. The reactions were placed on shaker and shaken for a period of 0-43 hours with samples being taken at various times.\nB. 25% organic solvent/75% aqueous buffer--Fifty milligrams of R,S-HPPA-Me was combined, in 10 ml Scintillation vial with 2.5 ml of organic solvent, 7.5 ml 50mM phosphate buffer (pH 6.8), and 5 mg Lipase MY. The reactions were shaken for a period of 0-143 hours with samples being taken at various time points.\nThe data in Table 2 represents the % conversion and % R-HPPA produced using the indicated organic solvents in a two-phase system wherein 75% […] of the total vehicle (solvent) was water and the balance (25%) was organic solvents."}, "CSC-2": {"tested_on": "CSC-2", "assay": "Effect of additives and solvents on hydrolysis of ketoprofen monoglyceride by CSC-2", "assay_type": "biochemical, Candida rugosa", "conditions": "for Final % Acid / Rate: 5 g KPG, 50 mg CSC-2, 5 grams additive; for % Acid: 75 mg KPG; for % ee: as E102; for Isolated % ee (S-Acid): extraction procedure I for oleic acid and corn oil, II for the others", "description": "Hydrolysis of ketoprofen-monoglyceride (50mg) was carried out in various DMF-100mM (NH4)H2 PO4 buffer (pH 5.5) mixtures. In each flask a solution of ketoprofen monoglyceride (50mg) in DMF (200ul) was added. DMF was added followed by 100mM (NH4)H2 PO4 buffer. […] After 22 hours, 2%, 5%, and 10% DMF samples were acidified, extracted with CHCl3 (2×10ml) and analyzed. The other samples were analyzed directly as in Example 18. The acid produced decreases with increasing amount of DMF.\nSmall amounts of DMF were added to the reaction mixture to increase the solubility of KPG. In all cases 100mM ammonium phosphate buffer (pH 5.5) was used and 2% (v/v) detergents were added and the total volume was 10ml.\nThe buffer reaction (entry #2 in the table) contained enzyme in buffer (2 ml) and the buffer only (entry #1 in the table) reaction contained no enzyme.\nThe presence of a surfactant like Tween increases the solubility o lipophilic compounds in water. […] Tween 80 was added to make 1% and 2% solution (v/v). Bovine serum albumin (BSA) (10mg) was added to each of two flasks. A solution of 50mg of ketoprofen monoglyceride in 200ul DMF was added to each. After 20 hours at 250 rpm and 35° C. the reaction mixtures were acidified, extracted and analyzed by the usual HPLC procedure as in Example 18.\nVarious surfactants were used at 2% of the reaction volume to determine their effect on the enzymatic reaction involving the conversion of ketoprofen monoglyceride (KPG) to ketoprofen (KP). […] Flasks were covered with parafilm and incubated in a 35° C. water bath at 250 rpm, typically overnight. Reactions were stopped by acidification, extracted with CHCl3 (2×10 ml). The %acid and %ee were determined by the method of Example 18. It is to be noted that Hydrophile-Lipophile Balance (HLB) values have no apparent bearing on the ability of the surfactant to enhance the conversion of KPG to KP.\n75 mg of KPG (in the absence of DMF) was individually weighed into 50 ml Erlenmeyer flasks. […] 9 ml of 100 mM (NH4)H2 PO4, pH 5.5 buffer was added, and the flasks were placed into a 35° C., 250 rpm water bath incubator for 20 hours. The reactions were acidified, extracted with CHCl3 and examined by HPLC as in Example 18. The %ee was determined as per Example 18.\nVarious amounts of oleic acid or its esters were added, and the reactions stopped at the times indicated, acidified, extracted with CHCl3 and analyzed as in Example 18.\nAn experiment was performed as in Example 41, but using 100, 200 and 500 ul of olive oil to determine if it would enhance the rate of conversion of KPG to KP. […] After 20 hours, all reactions were acidified, extracted with CHCl3 and analyzed by HPLC as in Example 18. The results are given below:\n50 mg of KPG was weighed into Erlenmeyer flasks. […] Flasks were incubated at 35° C., 250 rpm for 23 hours. The reactions were stopped by acidification, extracted with CHCl3, and analyzed by HPLC as in Example 18. The additive is listed along with its percentage composition of glycerides of oleic acid.\nTo determine the problems associated with having oleic acid or oleate. esters in the reaction media, the following experiment was performed. […] Flasks were placed in a 35° C. incubator at 250 rpm, and the reactions were sampled by taking 200 ul aliquots at various time points. These aliquots were analyzed by HPLC (ODS-3 RAC column, CH3 OH: 10 mM (NH4)H2 PO4 (60:40) eluant, 4 ml/min, 254 nm detection) to determine the course of reaction. When approximately 40% acid was produced, the reactions were stopped by placing the flasks in the -70° C. freezer. Two extraction procedures were utilized to determine the best method of isolating S-Ketoprofen free of oleic acid. The first (listed as Extraction Procedure I in the following table) involved first making the solution basic (pH 10) with NaOH, then extracting with hexane, then CHCl3."}, "[2]": {"conditions": "additive 100 ul, no DMF, 20 hours"}, "[3]": {"conditions": "surfactant 2% of reaction volume, 200 ul DMF, enzyme alone = 100"}}, "note": "“And” between values parts separate entries of the source, which are not always exact repeats. Equal entries are not always repeated. Where two headings read alike, the source gives them in different places."}
{"molecule": "CC(C(=O)OCC(O)CO)c1cccc(C(=O)c2ccccc2)c1", "note": "(stereo not drawn) [Monoglyceride Ester, ketoprofen monoglyceride]", "values": [{"measurement": "% ee", "setting": "[1]; Buffer 10 ml, OA 200 ul", "result": 96, "unit": "%"}, {"measurement": "% Acid", "setting": "[1]; Buffer 10 ml, OA 200 ul, enzyme not named in Example 55", "result": 26, "unit": "%"}, {"measurement": "% Acid", "setting": "[1]; CHCl3 9 ml, OA 1 ml", "result": 0, "unit": "%"}, {"measurement": "% Acid", "setting": "[1]; Hexane 9 ml, OA 1 ml, 10-26 hours", "result": 47, "unit": "%"}, {"measurement": "% ee", "setting": "[1]; Hexane 9 ml, OA 1 ml, * stopped at 10 Hr", "result": 97, "unit": "%"}, {"measurement": "% Acid", "setting": "[1]; Isooctane 9 ml, OA 1 ml", "result": 31, "unit": "%"}, {"measurement": "% ee", "setting": "[1]; Isooctane 9 ml, OA 1 ml, * stopped at 10 Hr", "result": 96, "unit": "%"}, {"measurement": "% Acid", "setting": "[1]; Toluene 9 ml, OA 1 ml", "result": 0, "unit": "%"}]}
{"molecule": "CC(C)=O", "note": "[acetone]", "values": [{"measurement": "% R", "setting": "Lipase MY", "result": 0, "unit": "%"}, {"measurement": "Conversion (ester/acid)", "setting": "Lipase MY", "result": 0, "unit": "%"}]}
{"molecule": "CCO", "note": "[ethyl alcohol]", "values": [{"measurement": "Conversion (ester/acid)", "setting": "Lipase MY", "result": 0, "unit": "%"}, {"measurement": "% R", "setting": "Lipase MY; solvent 25%, 43 hr", "result": 0, "unit": "%"}, {"measurement": "% R", "setting": "Lipase MY; solvent 75%, 43 hr", "result": 0, "unit": "%"}]}
{"molecule": "Fc1ccccc1", "note": "[fluorobenzene]", "values": [{"measurement": "% R", "setting": "Lipase MY; solvent 25%, 5.3 hr", "result": 95, "unit": "%"}, {"measurement": "Conversion (ester/acid)", "setting": "Lipase MY; solvent 25%, 5.3 hr", "result": 40, "unit": "%"}, {"measurement": "% R", "setting": "Lipase MY; solvent 75%, 5.3 hr", "result": 86, "unit": "%"}, {"measurement": "Conversion (ester/acid)", "setting": "Lipase MY; solvent 75%, 5.3 hr", "result": 29, "unit": "%"}]}
{"molecule": "Span 85", "values": [{"measurement": "Final % Acid", "setting": "CSC-2", "result": 28.9, "unit": "%"}, {"measurement": "Rate", "setting": "CSC-2", "result": 0.87, "unit": "µmol/h/mg"}, {"measurement": "% Acid", "setting": "CSC-2; [2]", "result": 28, "unit": "%"}, {"measurement": "S-acid (% ee)", "setting": "CSC-2; additive 200 ul", "result": 96}, {"measurement": "% Acid", "setting": "CSC-2; additive 200 ul, 20 hours", "result": 33, "unit": "%"}, {"measurement": "% Acid", "setting": "CSC-2; additive 500 ul, 20 hours", "result": 34, "unit": "%"}, {"measurement": "% ee", "setting": "CSC-2", "result": "93% and 96% and 95% and 97%"}, {"measurement": "Isolated % ee (S-Acid)", "setting": "CSC-2", "result": 95.1, "unit": "%"}, {"measurement": "Relative Rate", "setting": "CSC-2; [3]", "result": 181}]}
{"molecule": "Tween 20", "values": [{"measurement": "Relative Rate", "setting": "CSC-2; [3]", "result": 39}]}
{"molecule": "Tween 40", "values": [{"measurement": "Relative Rate", "setting": "CSC-2; [3]", "result": 29}]}
{"molecule": "Tween 60", "values": [{"measurement": "Relative Rate", "setting": "CSC-2; [3]", "result": 23}]}
{"molecule": "Tween 61", "values": [{"measurement": "Relative Rate", "setting": "CSC-2; [3]", "result": 92}]}
{"molecule": "Tween 65", "values": [{"measurement": "Relative Rate", "setting": "CSC-2; [3]", "result": 39}]}
{"molecule": "Tween 80", "values": [{"measurement": "Final % Acid", "setting": "CSC-2", "result": 34.9, "unit": "%"}, {"measurement": "Rate", "setting": "CSC-2", "result": 0.46, "unit": "µmol/h/mg"}, {"measurement": "Relative Rate", "setting": "CSC-2; 20 hours, b844=no Tween no BSA, b846=1% Tween and BSA, b848=2% Tween and BSA, b850=2% Tween no BSA, 1200 min", "result": "114 and 142 and 118"}, {"measurement": "% Acid", "setting": "CSC-2; [2]", "result": 12, "unit": "%"}, {"measurement": "S-acid (% ee)", "setting": "CSC-2; additive 200 ul", "result": 96}, {"measurement": "% Acid", "setting": "CSC-2; additive 200 ul, 20 hours", "result": 22, "unit": "%"}, {"measurement": "% Acid", "setting": "CSC-2; additive 500 ul, 20 hours", "result": 18, "unit": "%"}, {"measurement": "% ee", "setting": "CSC-2", "result": "96% and 92% and 86% and 97% and 93%"}, {"measurement": "ee of S-acid", "setting": "CSC-2; as E149", "result": "95% and 96%"}, {"measurement": "Isolated % ee (S-Acid)", "setting": "CSC-2", "result": 94.3, "unit": "%"}, {"measurement": "Relative Rate", "setting": "CSC-2; [3]", "result": 136}]}
{"molecule": "Tween 85", "values": [{"measurement": "Relative Rate", "setting": "CSC-2; [3]", "result": 27}]}
{"molecule": "sorbitan sesquioleate [Arlacel 83]", "values": [{"measurement": "% Acid", "setting": "CSC-2; [2]", "result": 30, "unit": "%"}, {"measurement": "S-acid (% ee)", "setting": "CSC-2; additive 200 ul", "result": 99}, {"measurement": "% Acid", "setting": "CSC-2; additive 200 ul, 20 hours", "result": 30, "unit": "%"}, {"measurement": "% Acid", "setting": "CSC-2; additive 500 ul, 20 hours", "result": 29, "unit": "%"}, {"measurement": "Relative Rate", "setting": "CSC-2; [3]", "result": 172}]}
